Read-outs that look alike come from different tables or passages of the source.
Columns and labels:
A375 = assay: SRB antiproliferation assay, A375 melanoma; format: cell-based, human; conditions: Homo sapiens, read-out: IC50 A375 (converted)
Text: (§1) For melanoma assays, one human melanoma cell line (A375) and one mouse melanoma cell line (B16-F1) were used. […] Fibroblast cells were used as a control to determine the selectivity of these compounds against melanoma. Human dermal fibroblast cells were purchased from Cascade Biologics, Inc., Portland, Oreg., USA.

WM164 = assay: SRB antiproliferation assay, WM-164 melanoma; format: cell-based; conditions: Homo sapiens
B16-F1 = assay: SRB antiproliferation assay, B16-F1 melanoma; format: cell-based, mouse; conditions: Mus musculus, read-out: IC50 B16-F1 (converted)
Text: as §1

DU 145 = assay: SRB antiproliferation assay, DU 145 prostate cancer; conditions: read-out: IC50 DU 145, SRB
PC-3 = assay: SRB antiproliferation assay, PC-3 prostate cancer; conditions: read-out: IC50 PC-3, SRB
LNCaP = assay: SRB antiproliferation assay, LNCaP prostate cancer; conditions: read-out: IC50 LNCaP, SRB
PPC-1 = assay: SRB antiproliferation assay, PPC-1 prostate cancer; conditions: read-out: IC50 PPC-1, SRB
OVCAR-8 = assay: SRB antiproliferation assay, OVCAR-8 ovarian cancer; conditions: Homo sapiens, OVCAR-8, read-out: IC50 OVCAR-8
NCI/ADR-RES = assay: SRB antiproliferation assay, P-gp over-expressing NCI/ADR-RES
melanoma cells = assay: SRB assay, melanoma cells; format: cell-based; conditions: range over melanoma cell lines; read-out: IC50 values against melanoma cells
Method: (§2) For melanoma assays, one human melanoma cell line (A375) and one mouse melanoma cell line (B16-F1) were used. […] Fibroblast cells were used as a control to determine the selectivity of these compounds against melanoma. Human dermal fibroblast cells were purchased from Cascade Biologics, Inc., Portland, Oreg., USA. […] Cells were exposed to a wide range of concentrations for 48 h in round-bottomed 96-well plates. […] After cells were air-dried overnight and stained with SRB solution, total proteins were measured at 560 nm with a plate reader.

[1] = test system: prostate cancer cells (LNCaP, PC-3, DU-145, PPC-1); assay: SRB assay, prostate cancer cells; format: cell-based, human; conditions: Homo sapiens, range over prostate cancer cell lines; read-out: IC50 values against prostate cancer cells
[2] = test system: Human dermal fibroblast cells; assay: SRB assay, fibroblast control cells; format: cell-based
Method: as §2

Row | SMILES | IC50 (A375; A-375, SRB) [µM] | IC50 (WM164) [µM] | IC50 (B16-F1; B16-F1, SRB) [µM] | melting point [°C] | IC50 [2] [µM] | also measured
1 | Cc1ccc(-c2nc(C(=O)c3ccc(F)cc3)cs2)cc1 [11-11] | 3.47 | 4.7 | 4.9 |  |  | 
2 | COc1cc(C(=O)c2c[nH]c(-c3cn(S(=O)(=O)c4ccccc4)c4ccccc34)n2)cc(OC)c1OC [17yab, (2-(1-(Phenylsulfonyl)-1H-indol-3-yl)-1H-imidazol-4-yl)(3,4,5-trimethoxyphenyl)methanone] | 0.481 | 0.468 | 0.539 |  |  | IC50 (DU 145): 0.592 µM; IC50 (PC-3): 0.148 µM; IC50 (LNCaP): 0.234 µM; IC50 (PPC-1): 0.209 µM
3 | COc1cc(C(=O)c2cccc(-c3ccccc3)n2)cc(OC)c1OC |  |  |  |  |  | IC50 (OVCAR-8): 0.033 ± 0.003 µM; IC50 (NCI/ADR-RES; Homo sapiens, NCI/ADR-RES, read-out: IC50 NCI/ADR-RES): 0.013 ± 0.0008 µM
4 | COc1cc(C(=O)c2csc(-c3ccccc3F)n2)cc(OC)c1OC [8l, [2-(2-Fluorophenyl)-thiazol-4-yl]-(3,4,5-trimethoxyphenyl)-methanone] | 0.03 |  | 0.027 | 90 to 102 |  | IC50 (DU 145): 0.114 µM; IC50 (PC-3): 0.082 µM; IC50 (LNCaP): 0.053 µM; IC50 (PPC-1): 0.052 µM; IC50 (melanoma cells): 0.027 to 0.03 µM; IC50 [1]: 0.052 to 0.114 µM
5 | COc1ccc(C(=O)n2ccnc2-c2ccc(F)cc2)cc1 [24-24] | > 10 | > 10 | > 10 |  |  | 
6 | COc1cc(/C(=N\N)c2csc(-c3ccccc3)n2)cc(OC)c1OC [compound 36, (E)-4-(Hydrazono(3,4,5-trimethoxyphenyl)methyl)-2-phenylthiazole] |  |  |  | 65 to 66 | 1 | 
7 | O=C(c1ccc(OC(F)(F)F)cc1)c1csc(-c2ccccc2)n1 [13-13] | > 10 | > 10 | > 10 |  |  | 
8 | COc1cc(/C(=N/N)c2csc(-c3ccccc3)n2)cc(OC)c1OC [compound 35, (Z)-4-(Hydrazono(3,4,5-trimethoxyphenyl)methyl)-2-phenylthiazole] |  |  |  | 117 to 119 | 1.9 | 
9 | COc1cc(/C(=N/O)c2csc(-c3ccccc3)n2)cc(OC)c1OC [compound 33, (Z)-(2-Phenylthiazol-4-yl)(3,4,5-trimethoxyphenyl)methanone oxime] |  |  |  | 150 to 153 | 0.36 | IC50 (A375; A-375, 48 h, SRB, 48 h): 0.18 µM; IC50 (B16-F1; B16-F1, 48 h, SRB, 48 h): 0.32 µM
10 | COc1cc(C(=NC#N)c2csc(-c3ccccc3)n2)cc(OC)c1OC |  |  |  |  |  | Resistance factor (NCI/ADR-RES; NCI/ADR-RES vs OVCAR-8): 0.4
11 | COc1cc(/C(=N\O)c2csc(-c3ccccc3)n2)cc(OC)c1OC [compound 34, (E)-(2-Phenylthiazol-4-yl)(3,4,5-trimethoxyphenyl)methanone oxime] |  |  |  | 176 to 177 | 10.1 | IC50 (DU 145; 96 h): > 1 µM; IC50 (PC-3; 96 h): > 1 µM; IC50 (LNCaP; 96 h): > 1 µM; IC50 (PPC-1; 96 h): > 1 µM
12 | COc1cc(C(=O)c2csc(-c3cccc(F)c3)n2)cc(OC)c1OC [8m, [2-(3-Fluorophenyl)-thiazol-4-yl](3,4,5-trimethoxyphenyl)-methanone] | 0.304 |  | 0.287 |  |  | IC50 (DU 145): 0.035 µM; IC50 (PC-3): 0.024 µM; IC50 (LNCaP): 0.011 µM; IC50 (PPC-1): 0.021 µM; IC50 (melanoma cells): 0.287 to 0.304 µM; IC50 [1]: 0.023 to 0.046 µM

Source: US10865196B2, “Compounds for treatment of cancer” (University of Tennessee Research Foundation, priority 2008, dated 2020)
